Assay results taken from PubChem BioAssay (NCI).
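Briefly, cells in 96-well plates were exposed to five compound concentrations for 48 h, and endpoints were estimated by linear interpolation. At the TGI there is no net growth.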

What was measured:
Assay in all cases: growth of human tumour cells (NCI), 48 h
LOX IMVI melanoma = tested on: LOX IMVI melanoma
K-562 leukemia = tested on: K-562 leukemia
A498 renal = tested on: A498 renal
SK-MEL-28 melanoma = tested on: SK-MEL-28 melanoma
HOP-92 NSCLC = tested on: HOP-92 NSCLC
MDA-N = tested on: MDA-N
SW-620 colon = tested on: SW-620 colon
NCI/ADR-RES ovarian = tested on: NCI/ADR-RES ovarian
MDA-MB-231 breast = tested on: MDA-MB-231 breast
MCF7 breast = tested on: MCF7 breast
U251 CNS = tested on: U251 CNS
OVCAR-3 ovarian = tested on: OVCAR-3 ovarian
CAKI-1 renal = tested on: CAKI-1 renal
T-47D breast = tested on: T-47D breast
HCT-116 colon = tested on: HCT-116 colon
HCC-2998 colon = tested on: HCC-2998 colon
IGROV1 ovarian = tested on: IGROV1 ovarian
SF-539 CNS = tested on: SF-539 CNS
SK-MEL-2 melanoma = tested on: SK-MEL-2 melanoma
NCI-H522 lung = tested on: NCI-H522 lung
MDA-MB-435 = tested on: MDA-MB-435
PC-3 prostate = tested on: PC-3 prostate
HS 578T breast = tested on: HS 578T breast
RXF 393 renal = tested on: RXF 393 renal
NCI-H226 lung = tested on: NCI-H226 lung
HL-60(TB) leukemia = tested on: HL-60(TB) leukemia
HT29 colon = tested on: HT29 colon
SF-295 CNS = tested on: SF-295 CNS
OVCAR-5 ovarian = tested on: OVCAR-5 ovarian
SNB-19 CNS = tested on: SNB-19 CNS
CCRF-CEM leukemia = tested on: CCRF-CEM leukemia
SNB-75 CNS = tested on: SNB-75 CNS
MALME-3M melanoma = tested on: MALME-3M melanoma
EKVX NSCLC = tested on: EKVX NSCLC
UACC-62 melanoma = tested on: UACC-62 melanoma
SR leukemia = tested on: SR leukemia
SK-MEL-5 melanoma = tested on: SK-MEL-5 melanoma
DU-145 prostate = tested on: DU-145 prostate
MOLT-4 leukemia = tested on: MOLT-4 leukemia
SN12C renal = tested on: SN12C renal
A549 NSCLC = tested on: A549 NSCLC
HOP-62 NSCLC = tested on: HOP-62 NSCLC
SF-268 CNS = tested on: SF-268 CNS
UACC-257 melanoma = tested on: UACC-257 melanoma
HCT-15 colon = tested on: HCT-15 colon
SK-OV-3 ovarian = tested on: SK-OV-3 ovarian
KM12 colon = tested on: KM12 colon
RPMI-8226 leukemia = tested on: RPMI-8226 leukemia
786-0 renal = tested on: 786-0 renal
COLO 205 colon = tested on: COLO 205 colon
ACHN renal = tested on: ACHN renal
TK-10 renal = tested on: TK-10 renal
NCI-H460 lung = tested on: NCI-H460 lung
M14 melanoma = tested on: M14 melanoma
UO-31 renal = tested on: UO-31 renal
OVCAR-8 ovarian = tested on: OVCAR-8 ovarian
NCI-H23 lung = tested on: NCI-H23 lung
BT-549 breast = tested on: BT-549 breast
OVCAR-4 ovarian = tested on: OVCAR-4 ovarian

With `C=C1CC(c2ccc(OCCCN3C(=O)c4ccccc4C3=O)cc2)OC1=O` (stereo unspecified) as the compound, how does the TGI (LOX IMVI melanoma) read?
Its TGI is 3.77 µM.

And the TGI (K-562 leukemia)?
Its TGI is 3.16 µM.

And the TGI (A498 renal)?
Its TGI is 3.56 µM.

What about the TGI (SK-MEL-28 melanoma) of the same compound?
The TGI was 3.98 µM.

What about the TGI (HOP-92 NSCLC) of the same compound?
The TGI was 2.99 µM.

What about the TGI (MDA-N) of the same compound?
The TGI was 10.7 µM.

And the TGI (SW-620 colon)?
The TGI was 2.99 µM.

And the TGI (NCI/ADR-RES ovarian)?
Its TGI is over 95.1 µM.

What about the TGI (MDA-MB-231 breast) of the same compound?
The TGI was 13 µM.

What about the TGI (MCF7 breast) of the same compound?
Its TGI is 6.46 µM.

What about the TGI (U251 CNS) of the same compound?
The TGI was 10.7 µM.

And the TGI (OVCAR-3 ovarian)?
The TGI was 5.31 µM.

What about the TGI (CAKI-1 renal) of the same compound?
The TGI was 6.54 µM.

And the TGI (T-47D breast)?
The TGI was over 34.7 µM.

And the TGI (HCT-116 colon)?
Its TGI is 4.89 µM.

What about the TGI (HCC-2998 colon) of the same compound?
The TGI was 16.8 µM.

And the TGI (IGROV1 ovarian)?
Its TGI is 4.57 µM.

And the TGI (SF-539 CNS)?
Its TGI is 0.827 µM.

What about the TGI (SK-MEL-2 melanoma) of the same compound?
Its TGI is 4.98 µM.

And the TGI (NCI-H522 lung)?
The TGI was 1.83 µM.

What about the TGI (MDA-MB-435) of the same compound?
The TGI was 9.2 µM.

And the TGI (PC-3 prostate)?
Its TGI is 10.9 µM.

What about the TGI (HS 578T breast) of the same compound?
Its TGI is 20.4 µM.

What about the TGI (RXF 393 renal) of the same compound?
The TGI was 3.65 µM.

What about the TGI (NCI-H226 lung) of the same compound?
The TGI was 11.4 µM.

What about the TGI (HL-60(TB) leukemia) of the same compound?
Its TGI is 5.22 µM.

And the TGI (HT29 colon)?
Its TGI is 9.24 µM.

What about the TGI (SF-295 CNS) of the same compound?
Its TGI is 25.5 µM.

What about the TGI (OVCAR-5 ovarian) of the same compound?
Its TGI is 25.5 µM.

What about the TGI (SNB-19 CNS) of the same compound?
Its TGI is 25.5 µM.

What about the TGI (CCRF-CEM leukemia) of the same compound?
Its TGI is 4.56 µM.

What about the TGI (SNB-75 CNS) of the same compound?
The TGI was 23.7 µM.

And the TGI (MALME-3M melanoma)?
The TGI was 7.27 µM.

What about the TGI (EKVX NSCLC) of the same compound?
Its TGI is 18.4 µM.

What about the TGI (UACC-62 melanoma) of the same compound?
Its TGI is 4.75 µM.

What about the TGI (SR leukemia) of the same compound?
The TGI was 8.57 µM.

And the TGI (SK-MEL-5 melanoma)?
The TGI was 20.4 µM.

What about the TGI (DU-145 prostate) of the same compound?
Its TGI is 16.3 µM.

And the TGI (MOLT-4 leukemia)?
The TGI was 4.06 µM.

And the TGI (SN12C renal)?
Its TGI is 12.3 µM.

And the TGI (A549 NSCLC)?
The TGI was 39.2 µM.

What about the TGI (HOP-62 NSCLC) of the same compound?
The TGI was 33.2 µM.

What about the TGI (SF-268 CNS) of the same compound?
Its TGI is 15.4 µM.

What about the TGI (UACC-257 melanoma) of the same compound?
Its TGI is 7.55 µM.

And the TGI (HCT-15 colon)?
Its TGI is 6.84 µM.

What about the TGI (SK-OV-3 ovarian) of the same compound?
The TGI was 27.5 µM.

What about the TGI (KM12 colon) of the same compound?
The TGI was 16.8 µM.

What about the TGI (RPMI-8226 leukemia) of the same compound?
Its TGI is 3.68 µM.

And the TGI (786-0 renal)?
The TGI was 5.23 µM.

And the TGI (COLO 205 colon)?
The TGI was 6.37 µM.

And the TGI (ACHN renal)?
The TGI was 10.4 µM.

What about the TGI (TK-10 renal) of the same compound?
The TGI was 14.5 µM.

And the TGI (NCI-H460 lung)?
The TGI was 8.42 µM.

What about the TGI (M14 melanoma) of the same compound?
The TGI was 9.09 µM.

And the TGI (UO-31 renal)?
Its TGI is 7.81 µM.

And the TGI (OVCAR-8 ovarian)?
Its TGI is 9.35 µM.

And the TGI (NCI-H23 lung)?
The TGI was 9.34 µM.

For `O[C@@]12Cc3c([nH]c4ccccc34)[C@@H]3Oc4cccc5c4[C@@]31CCN(CC1CC1)[C@@H]2C5`, which TGI (LOX IMVI melanoma) is on record?
The TGI was 32.9 µM.

And the TGI (K-562 leukemia)?
The TGI was 55.4 µM.

And the TGI (A498 renal)?
The TGI was 40.5 µM.

And the TGI (BT-549 breast)?
The TGI was 35.3 µM.

What about the TGI (SK-MEL-28 melanoma) of the same compound?
Its TGI is 38.3 µM.

And the TGI (HOP-92 NSCLC)?
Its TGI is 25.6 µM.

And the TGI (MDA-N)?
The TGI was 33.9 µM.

What about the TGI (SW-620 colon) of the same compound?
The TGI was 25.7 µM.

And the TGI (NCI/ADR-RES ovarian)?
The TGI was 51.2 µM.

And the TGI (MDA-MB-231 breast)?
The TGI was 40.4 µM.

And the TGI (MCF7 breast)?
The TGI was 31.3 µM.

What about the TGI (U251 CNS) of the same compound?
The TGI was 54 µM.

And the TGI (OVCAR-3 ovarian)?
The TGI was 36.8 µM.

And the TGI (CAKI-1 renal)?
Its TGI is 34.2 µM.

And the TGI (HCC-2998 colon)?
Its TGI is 31.9 µM.

And the TGI (IGROV1 ovarian)?
The TGI was 45.4 µM.

And the TGI (SF-539 CNS)?
Its TGI is 36.3 µM.

What about the TGI (SK-MEL-2 melanoma) of the same compound?
The TGI was 41.5 µM.

And the TGI (NCI-H522 lung)?
The TGI was 38 µM.

What about the TGI (MDA-MB-435) of the same compound?
Its TGI is 29.2 µM.

What about the TGI (PC-3 prostate) of the same compound?
The TGI was 30.7 µM.

And the TGI (OVCAR-4 ovarian)?
Its TGI is 41.3 µM.

And the TGI (HT29 colon)?
Its TGI is 29.8 µM.

And the TGI (OVCAR-5 ovarian)?
Its TGI is 49.4 µM.

What about the TGI (SNB-19 CNS) of the same compound?
The TGI was 50.9 µM.

And the TGI (CCRF-CEM leukemia)?
Its TGI is 29.9 µM.

And the TGI (MALME-3M melanoma)?
The TGI was 33.9 µM.

What about the TGI (EKVX NSCLC) of the same compound?
Its TGI is 47.6 µM.

What about the TGI (UACC-62 melanoma) of the same compound?
The TGI was 32.3 µM.

And the TGI (SR leukemia)?
The TGI was over 100 µM.

What about the TGI (SK-MEL-5 melanoma) of the same compound?
Its TGI is 40.7 µM.

And the TGI (DU-145 prostate)?
Its TGI is 45.2 µM.

And the TGI (MOLT-4 leukemia)?
Its TGI is 52.7 µM.

What about the TGI (SN12C renal) of the same compound?
The TGI was 37 µM.

And the TGI (A549 NSCLC)?
The TGI was 43.5 µM.

And the TGI (HOP-62 NSCLC)?
Its TGI is 46.6 µM.

What about the TGI (SF-268 CNS) of the same compound?
The TGI was 34 µM.

And the TGI (UACC-257 melanoma)?
Its TGI is 42 µM.

And the TGI (HCT-15 colon)?
The TGI was 32.6 µM.

And the TGI (KM12 colon)?
Its TGI is 54 µM.

What about the TGI (RPMI-8226 leukemia) of the same compound?
The TGI was 41.2 µM.

And the TGI (COLO 205 colon)?
The TGI was 49.8 µM.

What about the TGI (ACHN renal) of the same compound?
The TGI was 34.8 µM.

And the TGI (TK-10 renal)?
Its TGI is 33.7 µM.

What about the TGI (NCI-H460 lung) of the same compound?
The TGI was 60.9 µM.

What about the TGI (M14 melanoma) of the same compound?
Its TGI is 39.4 µM.

What about the TGI (UO-31 renal) of the same compound?
Its TGI is 32.9 µM.

And the TGI (OVCAR-8 ovarian)?
The TGI was 29 µM.

What about the TGI (NCI-H23 lung) of the same compound?
The TGI was 55.6 µM.
